# Reference: article PMC8187479, “Sugar phosphate activation of the stress sensor eIF2B” (Nature Communications, 2021)
# Substitutions are numbered along the chain they refer to. “Also recorded” adds a separate entry of the source.
# Legend:
# [1] = biological target: T1, eIF2Bα (Homo sapiens, UniProt Q14232); test: Isothermal titration calorimetry, wild-type eIF2Bα; format: binding
# T1 construct: made in house; host or cells: E. coli BL21(DE3)
# T1 sequence (Q14232 1-305): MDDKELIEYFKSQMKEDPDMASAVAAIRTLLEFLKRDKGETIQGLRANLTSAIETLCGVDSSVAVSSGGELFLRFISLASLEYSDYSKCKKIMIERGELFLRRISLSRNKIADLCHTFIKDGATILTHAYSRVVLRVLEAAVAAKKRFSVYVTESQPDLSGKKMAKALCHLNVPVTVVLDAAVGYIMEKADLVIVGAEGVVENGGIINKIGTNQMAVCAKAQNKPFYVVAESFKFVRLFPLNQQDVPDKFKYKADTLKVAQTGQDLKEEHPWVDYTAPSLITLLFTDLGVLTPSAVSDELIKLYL
# Method: (§1) Interactions between recombinant protein and sugar phosphates were conducted with a MicroCal PEAQ-ITC (Malvern Panalytical Inc.). Experiments were performed in 25 mM HEPES, 150 mM NaCl, pH 7.5 at 20 °C. The sugar phosphate concentration in the syringe was 1 mM or 1.5 mM, and ~3.5 μL aliquots were injected into cells containing 300 μL eIF2Bα or eIF2B(βδγε) at a concentration of 20–30 μM. The final titration curves were fitted using MicroCal ITC data analysis software, assuming a single binding site per monomer.
# [2] = biological target: T2, eIF2Bα^N208Y (Homo sapiens, UniProt Q14232, N208Y); test: Isothermal titration calorimetry, eIF2Bα N208Y; format: binding; conditions: ITC
# T2 construct: made in house; host or cells: E. coli BL21(DE3)
# T2 sequence (Q14232 1-305 N208Y): T1 sequence (Q14232 1-305) with N208Y
# Method: as §1
# [3] = biological target: T3, eIF2B in eIF2Bα^E198K HEK293T lysate (Homo sapiens, UniProt P49770+Q14232+Q9UI10, E198K); test: GEF activity assay with eIF2Bα E198K HEK293T lysate; format: biochemical
# T3 construct: endogenous in cells; host or cells: HEK293T, CRISPR knock-in eIF2Bα E198K (homozygous), lysate
# Method: Bodipy-FL-GDP-loaded eIF2 was used as a substrate for recombinant eIF2B. The assay was performed in 384-well plates. Reactions were read on a SpectraMax i3x plate reader (Molecular Devices) using the instrument’s Softmax Pro software with the following parameters: plate temperature = 25 °C; excitation wavelength = 485 nm (15 nm width); emission wavelength = 535 nm (25 nm width); read duration = 30 min at 45 s intervals. Data were analyzed in Prism. GDP release half-lives were calculated by fitting single-exponential decay curves.
# For unbiased screening, MIDAS metabolite libraries at 10 mM stock concentration were dispensed into wells of the assay plate using an Echo Acoustic Liquid Handler (Labcyte). In a final assay volume of 10 μL/well, the following conditions were kept constant: 25 nM Bodipy-FL-GDP-loaded eIF2, 4 nM phospho-eIF2, 0.1 mM GDP, 1 mg/mL BSA, 1 nM eIF2B, 10 μM metabolite. A single well was run for each metabolite. For targeted experiments with recombinant wild-type and mutant eIF2Bα, the following conditions were used: 50 nM Bodipy-FL-GDP-loaded eIF2, 0.1 mM GDP, 1 mg/ml BSA, 20 nM eIF2B. For targeted experiments with HEK293T lysates, the following conditions were used: 50 nM Bodipy-FL-GDP-loaded eIF2, 0.1 mM GDP, 1 mg/ml BSA, 0.1 or 0.3 mg/ml lysates.
# T3 sequence (Q14232 whole entry E198K): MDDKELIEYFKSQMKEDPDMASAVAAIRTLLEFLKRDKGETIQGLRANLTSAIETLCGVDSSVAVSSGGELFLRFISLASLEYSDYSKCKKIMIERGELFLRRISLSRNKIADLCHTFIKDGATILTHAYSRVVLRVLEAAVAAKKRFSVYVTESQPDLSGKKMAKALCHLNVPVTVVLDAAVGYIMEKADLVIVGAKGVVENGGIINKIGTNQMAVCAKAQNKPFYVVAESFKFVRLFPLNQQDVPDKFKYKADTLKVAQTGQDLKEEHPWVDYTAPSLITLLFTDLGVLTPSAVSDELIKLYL
# T3 sequence (P49770 whole entry): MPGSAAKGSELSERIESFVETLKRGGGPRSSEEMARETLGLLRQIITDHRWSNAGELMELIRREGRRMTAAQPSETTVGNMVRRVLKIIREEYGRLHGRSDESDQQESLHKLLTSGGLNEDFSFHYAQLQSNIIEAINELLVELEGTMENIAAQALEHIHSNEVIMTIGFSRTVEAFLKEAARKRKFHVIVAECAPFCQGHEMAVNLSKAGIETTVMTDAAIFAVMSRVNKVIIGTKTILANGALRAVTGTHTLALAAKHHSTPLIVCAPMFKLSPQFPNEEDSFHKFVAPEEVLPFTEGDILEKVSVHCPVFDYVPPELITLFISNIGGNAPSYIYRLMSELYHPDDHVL
# T3 sequence (Q9UI10 whole entry): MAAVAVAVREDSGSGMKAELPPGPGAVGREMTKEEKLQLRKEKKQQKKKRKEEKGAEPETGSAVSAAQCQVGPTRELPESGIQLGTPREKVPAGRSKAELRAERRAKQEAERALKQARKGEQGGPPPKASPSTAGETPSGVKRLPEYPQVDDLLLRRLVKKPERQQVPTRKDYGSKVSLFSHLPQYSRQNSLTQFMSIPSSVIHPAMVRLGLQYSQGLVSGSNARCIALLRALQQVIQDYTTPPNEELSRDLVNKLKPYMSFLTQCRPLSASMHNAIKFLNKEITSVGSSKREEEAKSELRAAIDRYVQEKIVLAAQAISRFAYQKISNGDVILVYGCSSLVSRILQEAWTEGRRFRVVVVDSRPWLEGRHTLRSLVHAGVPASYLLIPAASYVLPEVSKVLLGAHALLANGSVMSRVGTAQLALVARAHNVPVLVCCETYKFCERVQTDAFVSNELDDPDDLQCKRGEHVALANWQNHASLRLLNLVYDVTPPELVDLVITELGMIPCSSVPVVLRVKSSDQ
# T3 sequence (Q9NR50 whole entry partner): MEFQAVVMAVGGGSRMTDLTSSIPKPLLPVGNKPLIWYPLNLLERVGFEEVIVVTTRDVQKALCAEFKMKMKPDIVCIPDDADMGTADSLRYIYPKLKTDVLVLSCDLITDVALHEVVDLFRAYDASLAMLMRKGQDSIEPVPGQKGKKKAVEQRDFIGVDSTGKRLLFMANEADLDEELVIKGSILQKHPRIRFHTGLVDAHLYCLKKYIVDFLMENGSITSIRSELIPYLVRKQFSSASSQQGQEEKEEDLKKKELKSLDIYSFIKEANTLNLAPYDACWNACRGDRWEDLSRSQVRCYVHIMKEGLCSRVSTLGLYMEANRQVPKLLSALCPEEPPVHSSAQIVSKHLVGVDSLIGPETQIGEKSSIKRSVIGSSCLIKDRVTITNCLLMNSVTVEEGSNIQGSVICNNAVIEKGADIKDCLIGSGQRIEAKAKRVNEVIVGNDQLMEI
# T3 sequence (Q13144 whole entry partner): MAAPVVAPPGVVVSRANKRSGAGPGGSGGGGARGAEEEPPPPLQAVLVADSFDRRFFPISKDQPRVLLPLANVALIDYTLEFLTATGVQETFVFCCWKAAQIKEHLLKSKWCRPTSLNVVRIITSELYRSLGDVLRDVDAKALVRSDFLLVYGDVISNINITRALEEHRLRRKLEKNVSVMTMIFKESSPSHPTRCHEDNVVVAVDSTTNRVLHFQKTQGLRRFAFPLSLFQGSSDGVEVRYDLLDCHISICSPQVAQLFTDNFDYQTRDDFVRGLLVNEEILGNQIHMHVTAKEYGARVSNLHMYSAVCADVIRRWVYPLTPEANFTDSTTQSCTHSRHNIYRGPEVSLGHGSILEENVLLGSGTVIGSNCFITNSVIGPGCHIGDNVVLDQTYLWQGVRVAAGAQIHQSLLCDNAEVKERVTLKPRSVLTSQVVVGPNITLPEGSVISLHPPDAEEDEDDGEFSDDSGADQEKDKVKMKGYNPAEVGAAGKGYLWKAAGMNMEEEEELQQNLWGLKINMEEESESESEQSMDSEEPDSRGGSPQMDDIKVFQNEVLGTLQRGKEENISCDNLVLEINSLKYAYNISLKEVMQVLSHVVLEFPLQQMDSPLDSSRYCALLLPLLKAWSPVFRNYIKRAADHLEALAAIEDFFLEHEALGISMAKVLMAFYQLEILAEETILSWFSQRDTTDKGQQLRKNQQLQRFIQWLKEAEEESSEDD
structure (smiles),measurement,setting,value
"O=C(CO)[C@@H](O)[C@H](O)[C@H](O)COP(=O)(O)O [F6P, fructose-6-phosphate]",Kd,"[1]; ITC, wild-type eIF2Bα",9.4 ± 2.3 µM
same,"ITC binding isotherm, heat per mole of injectant",[1]; molar ratio 0.037369,-7.609 kcal/mol
same,"ITC binding isotherm, heat per mole of injectant",[1]; molar ratio 0.225339,-7.342 kcal/mol
same,"ITC binding isotherm, heat per mole of injectant",[1]; molar ratio 0.415168,-6.77 kcal/mol
same,"ITC binding isotherm, heat per mole of injectant",[1]; molar ratio 0.606855,-6.002 kcal/mol
same,"ITC binding isotherm, heat per mole of injectant",[1]; molar ratio 0.8004,-5.049 kcal/mol
same,"ITC binding isotherm, heat per mole of injectant",[1]; molar ratio 0.995804,-4.011 kcal/mol
same,"ITC binding isotherm, heat per mole of injectant",[1]; molar ratio 1.19307,-3.038 kcal/mol
same,"ITC binding isotherm, heat per mole of injectant",[1]; molar ratio 1.39219,-2.241 kcal/mol
same,"ITC binding isotherm, heat per mole of injectant",[1]; molar ratio 1.59317,-1.647 kcal/mol
same,"ITC binding isotherm, heat per mole of injectant",[1]; molar ratio 1.796,-1.223 kcal/mol
same,"ITC binding isotherm, heat per mole of injectant",[1]; molar ratio 2.0007,-0.9255 kcal/mol
same,"ITC binding isotherm, heat per mole of injectant",[1]; molar ratio 2.20725,-0.7147 kcal/mol
same,"ITC binding isotherm, heat per mole of injectant",[1]; molar ratio 2.41567,-0.5629 kcal/mol
same,"ITC binding isotherm, heat per mole of injectant",[1]; molar ratio 2.62594,-0.4515 kcal/mol
same,"ITC binding isotherm, heat per mole of injectant",[1]; molar ratio 2.83807,-0.3681 kcal/mol
same,"ITC binding isotherm, heat per mole of injectant",[1]; molar ratio 3.05206,-0.3043 kcal/mol
same,"ITC binding isotherm, heat per mole of injectant",[1]; molar ratio 3.2679,-0.2547 kcal/mol
same,"ITC binding isotherm, heat per mole of injectant",[1]; molar ratio 3.48561,-0.2155 kcal/mol
same,"ITC binding isotherm, heat per mole of injectant",[1]; molar ratio 3.70517,-0.184 kcal/mol
same,interaction with eIF2Bα N208Y,[2],does not interact; also recorded: abrogates binding
same,effect on GEF activity of eIF2Bα E198K lysate,[3],does not respond
